The term Ki denotes the equilibrium dissociation constant of an inhibitor or competing ligand from its target. A higher Ki goes with weaker binding.

The record followed here is patent US20230135093A1, “TRIAZOLYL DERIVATIVES AS GABA A ALPHA5 PAM” (Hoffmann-La Roche Inc., priority 2020, published 2023).

The target of experiment [1] is T1, h-GABA-A α5β3γ2 (Homo sapiens, UniProt P18507+P31644).
T1 construct: expressed in transfected cells; host or cells: Xenopus laevis oocytes, micro-injected with subunit RNA
In words: [3H]flumazenil competition binding assay on membranes of HEK293 cells expressing GABAA receptors. As to conditions: Table 1; displacement of [3H]-Flumazenil (0.5 nM), HEK293 cells expressing human receptors, means of two determinations. An outline of the steps: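 Membranes from HEK293 cells transiently expressing human α5β3γ2 were incubated 1 h at 4 °C in Krebs-tris pH 7.5 with 0.5 nM [3H]flumazenil and test compound. Nonspecific binding was set with 10^−5 M diazepam. Bound radioactivity was filtered and counted. Ki is the mean of two determinations.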
In general terms: Displacement assays read how much labelled ligand stays bound in the presence of the test substance.

For experiment [2], the target named is T1, h-GABA-A α5β3γ2. Nature of the experiment: Two-electrode voltage clamp electrophysiology in Xenopus oocytes expressing GABAA receptors (modulation of GABA EC20 current). In kind it is cell-based. Particulars: Table 1; for Efficacy (GABA) %: % modulation of GABA EC20 = 100*(Fold increase-1); for Fold increase h-GABA-A α5β3γ2 oocyte: Xenopus oocytes, GABA EC20, test compound at approximatively 30 fold its Ki. Put shortly:
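Oocytes injected with α5β3γ2 subunit RNA, recorded 3-5 days later by two-electrode clamp at −80 mV, room temperature, pH 7.4. The compound, at ~30-fold its Ki, was co-applied during a second GABA EC20 pulse. Efficacy was the extremum of the point-by-point second/first current ratio, given as % modulation (100×(fold−1)); n≥3 oocytes.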
For orientation: In two-electrode clamp one electrode senses voltage and the other passes current.

Take `CCOc1ccc(-c2cnn(Cc3c(-c4ccc(Cl)cc4F)nnn3C)c(=O)c2)cn1` [Example 103, 2-((5-(4-chloro-2-fluoro-phenyl)-3-methyl-triazol-4-yl)methyl)-5-(6-ethoxy-3-pyridyl)pyridazin-3-one]: in experiment [1], the Ki is 10.4 nM. Moreover, in experiment [2], the “Efficacy (GABA) %” value came to 106% and the “Fold increase h-GABA-A α5β3γ2 oocyte” value is 2.06.
The like results for `COc1ncc(-c2cnn(Cc3c(-c4ccc(Cl)cc4F)nnn3C)c(=O)c2)cc1C` [Example 104, 2-((5-(4-chloro-2-fluoro-phenyl)-3-methyl-triazol-4-yl)methyl)-5-(6-methoxy-5-methyl-3-pyridyl)pyridazin-3-one] were, in that order, 11.8 nM, 158% and 2.58.
In the same order, the values of `CCn1nnc(-c2ccc(Cl)cc2F)c1Cn1ncc(-c2cnn(C3CC3)c2)cc1=O` [Example 105, 2-((4-(4-chloro-2-fluorophenyl)-1-ethyl-1H-1,2,3-triazol-5-yl)methyl)-5-(1-cyclopropyl-1H-pyrazol-4-yl)pyridazin-3(2H)-one] are 17.2 nM, 111% and 2.11.
As for `Cn1nnc(-c2ccc(Cl)cc2F)c1Cn1ncc(-c2cnn(CC(F)F)c2)cc1=O` [Example 106, 2-((5-(4-chloro-2-fluoro-phenyl)-3-methyl-triazol-4-yl)methyl)-5-(1-(2,2-difluoro-ethyl)pyrazol-4-yl)pyridazin-3-one], the affinity in experiment [1], expressed as Ki, was 11.4 nM. In addition, in experiment [2], the “Efficacy (GABA) %” value is recorded as 72% and the “Fold increase h-GABA-A α5β3γ2 oocyte” value is recorded as 1.72.
Molecule `Cn1nnc(-c2ccc(Cl)cc2F)c1Cn1ncc(-c2cccc(C#N)n2)cc1=O` [Example 107, 6-(1-((5-(4-chloro-2-fluoro-phenyl)-3-methyl-triazol-4-yl)methyl)-6-oxo-pyridazin-4-yl)pyridine-2-carbonitrile] registered an inhibition constant (Ki) in experiment [1] of 9 nM. In experiment [2], the “Efficacy (GABA) %” value came to 234% and the “Fold increase h-GABA-A α5β3γ2 oocyte” value came to 3.34.
In the same order, the values of `COc1cc(-c2cnn(Cc3c(-c4ccc(Cl)cc4F)nnn3C)c(=O)c2)cnc1Cl` [Example 108, 2-((5-(4-chloro-2-fluoro-phenyl)-3-methyl-triazol-4-yl)methyl)-5-(6-chloro-5-metlioxy-3-pyridyl)pyridazin-3-one] are 16.8 nM, 46% and 1.46.
In the same order, the values of `C[C@@H]1CCCN1c1cnn(Cc2c(-c3ccc(Cl)nc3)nnn2C)c(=O)c1` [Example 109, 2-[[5-(6-chloro-3-pyridyl)-3-methyl-triazol-4-yl]methyl]-5-[(2R)-2-methylpyrrolidin-1-yl]pyridazin-3-one] are 1.1 nM, 75% and 1.75.
Consider `CCn1nnc(-c2ccc(Cl)cc2F)c1Cn1ncc(-c2cnc(OC)c(Cl)c2)cc1=O` [Example 110, 2-((4-(4-chloro-2-fluorophenyl)-1-ethyl-1H-1,2,3-triazol-5-yl)methyl)-5-(5-chloro-6-methoxypyridin-3-yl)pyridazin-3(2H)-one], for which the inhibition constant Ki in experiment [1] came to 8.8 nM. Also, in experiment [2], the “Efficacy (GABA) %” value turned out to be 139% and the “Fold increase h-GABA-A α5β3γ2 oocyte” value is 2.39.
In the same order, the values of `CCn1nnc(-c2ccc(Cl)cc2F)c1Cn1ncc(-c2cccc(C#N)n2)cc1=O` [Example 111, 6-(1-((4-(4-chloro-2-fluorophenyl)-1-ethyl-1H-1,2,3-triazol-5-yl)methyl)-6-oxo-1,6-dihydropyridazin-4-yl)picolinonitrile] are 23.8 nM, 290% and 3.9.
In experiment [1], `C[C@@H]1CN(c2cnn(Cc3c(-c4ccc(Cl)nc4)nnn3C)c(=O)c2)C[C@H](C)O1` [Example 112, 2-[[5-(6-chloro-3-pyridyl)-3-methyl-triazol-4-yl]methyl]-5-[(2S,6R)-2,6-dimethylmorpholin-4-yl]pyridazin-3-one] displayed a Ki of 12.8 nM. Besides, in experiment [2], the “Efficacy (GABA) %” value is on record as 228% and the “Fold increase h-GABA-A α5β3γ2 oocyte” value is 3.28.
In the same order, the values of `Cc1ccnn1C1CN(c2cnn(Cc3c(-c4ccc(Cl)cc4F)nnn3C)c(=O)c2)C1` [Example 113, 2-[[5-(4-chloro-2-fluoro-phenyl)-3-methyl-triazol-4-yl]methyl]-5-[3-(5-methylpyrazol-1-yl)azetidin-1-yl]pyridazin-3-one] are 48.5 nM, 98% and 1.98.
`COc1ncc(-c2cnn(Cc3c(-c4ccc(C)nn4)nnn3C)c(=O)c2)cc1Cl` [Example 114, 5-(5-chloro-6-methoxy-3-pyridyl)-2-[[3-methyl-5-(6-methylpyridazin-3-yl)triazol-4-yl]methyl]pyridazin-3-one] returned a Ki in experiment [1] of 3.6 nM. The “Efficacy (GABA) %” value in experiment [2] is on record as 154%.
On to `CCOC1CN(c2cnn(Cc3c(-c4ncc(C(F)(F)F)cn4)nnn3C)c(=O)c2)C1` [Example 115, 5-(3-ethoxyazetidin-1-yl)-2-[[3-methyl-5-[5-(trifluoromethyl)pyrimidin-2-yl]triazol-4-yl]methyl]pyridazin-3-one], for which the Ki in experiment [1] is 47.4 nM. In experiment [2], the “Efficacy (GABA) %” value worked out at 74% and the “Fold increase h-GABA-A α5β3γ2 oocyte” value turned out to be 1.74.
In the same order, the values of `CC(C)OC1CN(c2cnn(Cc3c(-c4ncc(C(F)(F)F)cn4)nnn3C)c(=O)c2)C1` [Example 116, 5-(3-isopropoxyazetidin-1-yl)-2-[[3-methyl-5-[5-(trifluoromethyl)pyrimidin-2-yl]triazol-4-yl]methyl]pyridazin-3-one] are 66.1 nM, 48% and 1.48.
The like results for `Cn1nnc(-c2ncc(C(F)(F)F)cn2)c1Cn1ncc(N2CC(OC3CCC3)C2)cc1=O` [Example 117, 5-[3-(cyclo-butoxy)azetidin-1-yl]-2-[[3-methyl-5-[5-(trifluoromethyl)pyrimidin-2-yl]triazol-4-yl]methyl]pyridazin-3-one] were, in that order, 52.7 nM, 87% and 1.87.
In the same order, the values of `COc1ncc(-c2cnn(Cc3c(-c4ncc(C(F)(F)F)cn4)nnn3C)c(=O)c2)cc1Cl` [Example 118, 5-(5-chloro-6-methoxypyridin-3-yl)-2-((1-methyl-4-(5-(trifluoromethyl)pyrimidin-2-yl)-1H-1,2,3-triazol-5-yl)methyl)pyridazin-3(2H)-one] are 15.4 nM, 135% and 2.35.
In experiment [1], `Cn1nnc(-c2ncc(C(F)(F)F)cn2)c1Cn1ncc(N2CC(OCC(F)F)C2)cc1=O` [Example 119, 5-[3-(2,2-difluoro-ethoxy)azetidin-1-yl]-2-[[3-methyl-5-[5-(trifluoromethyl)pyrimidin-2-yl]triazol-4-yl]methyl]pyridazin-3-one] came in with a Ki of 29.6 nM. In addition, in experiment [2], the “Efficacy (GABA) %” value was 86% and the “Fold increase h-GABA-A α5β3γ2 oocyte” value is recorded as 1.86.
In the same order, the values of `Cn1nnc(-c2ncc(C(F)(F)F)cn2)c1Cn1ncc(N2CC(OCC(F)(F)F)C2)cc1=O` [Example 120, 2-[[3-methyl-5-[5-(trifluoromethyl)pyrimidin-2-yl]triazol-4-yl]methyl]-5-[3-(2,2,2-trifluoro-ethoxy)azetidin-1-yl]pyridazin-3-one] are 27 nM, 78% and 1.78.
In the same order, the values of `Cn1nnc(-c2ncc(C(F)(F)F)cn2)c1Cn1ncc(N2CC(OC(F)F)C2)cc1=O` [Example 121, 5-[3-(difluoromethoxy)azetidin-1-yl]-2-[[3-methyl-5-[5-(trifluoromethyl)pyrimidin-2-yl]triazol-4-yl]methyl]pyridazin-3-one] are 24.8 nM, 89% and 1.89.
`CCn1nnc(-c2ccc(Cl)cc2F)c1Cn1ncc(N2CC3(CC[C@@H](C)CO3)C2)cc1=O` [Example 122, (R)-2-((4-(4-chloro-2-fluorophenyl)-1-ethyl-1H-1,2,3-triazol-5-yl)methyl)-5-(7-methyl-5-oxa-2-azaspiro[3.5]nonan-2-yl)pyridazin-3(2H)-one] came in with a Ki in experiment [1] of 55.5 nM. Besides, in experiment [2], the “Efficacy (GABA) %” value was 141% and the “Fold increase h-GABA-A α5β3γ2 oocyte” value was 2.41.
In the same order, the values of `COc1ncc(-c2cnn(Cc3c(-c4ccc(C(F)(F)F)nn4)nnn3C)c(=O)c2)cc1Cl` [Example 123, 5-(5-chloro-6-methoxypyridin-3-yl)-2-((1-methyl-4-(6-(trifluoro-methyl)pyridazin-3-yl)-1H-1,2,3-triazol-5-yl)methyl)pyridazin-3(2H)-one] are 7.6 nM, 148% and 2.48.
The like results for `CCn1nnc(-c2ccc(Cl)cc2F)c1Cn1ncc(N2CC3(CC[C@H](F)CO3)C2)cc1=O` [Example 124, (S)-2-((4-(4-chloro-2-fluorophenyl)-1-ethyl-1H-1,2,3-triazol-5-yl)methyl)-5-(7-fluoro-5-oxa-2-azaspiro[3.5]nonan-2-yl)pyridazin-3(2H)-one] were, in that order, 10.2 nM, 105% and 2.05.
